Data on 28 molecules can be found in patent publication US12404249B2, “Heterocyclic derivatives and use thereof” (C&C RESEARCH LABORATORIES, priority 2018, dated 2025).

A value given as a limit tells only on which side of the number the result lay.

Experiment [1] concerns prostate cancer cell line (LNCap). Nature of the experiment: Cell growth inhibition assay (Celltiter Glo). It counts as cell-based. As to conditions: Homo sapiens, LNCap cells, 120 hours incubation. The method, then:
Cancer cell inhibitory effects by the compounds of the Examples were evaluated as follows. The prostate cancer cell line (LNCap) used was cultured under the condition according to the vendor's recommendation. LNCap was dispensed into a 96-well plate at 10,000 cells/well. After incubation under the condition of 37° C. and 5% CO2 for 24 hours, the Example compounds of 50 mM DMSO stock were diluted to various concentrations and treated to the 96-well plate containing cells. After treatment of the Example compounds, LNCap cells were incubated in an incubator (37° C., 5% CO2) for 120 hours. After each incubation time, the 96-well plate was observed under a microscope to record the presence or absence of drug precipitation and specificities, and the 96-well plate was kept at room temperature for 30 minutes. Then, after addition of 20 μL of Celltiter Glo solution, the 96-well plate was well shaken for 30 minutes. The growth inhibitory activity was measured on microLUMA LB96P (BERTHOLD) instrument using Glo-vial protocol. As a negative control, a 96 well-plate in which culture medium was added but cells were not plated was used. As a positive control, a 96 well-plate in which cells were plated and 0.1% DMSO instead of drugs was added was used. The results of growth inhibitory effects of the Example compounds on prostate cancer cell line are represented in Table 2.

The next experiment has as its target T1, STAT3 (Homo sapiens, UniProt P40763).
T1 construct: endogenous in cells; host or cells: LNCaP (human prostate cancer) stably carrying pSTAT3-TA-luc reporter plasmid
Nature of the experiment: STAT3 activation inhibition assay (reporter gene assay, LNcaP stable cell line, IL-6 stimulated). It counts as cell-based. The settings on record: LNcaP stable cell line [plasmid STAT3-TA-luc], IL-6 10 ng/mL, 48 hours, luciferase activity; read-out: IC50 (μM) pSTAT3. The method, then:
Cancer cell lines used for evaluating the compounds of the Examples were purchased from ATCC (American Type Culture Collection) or KCLB (Korean Cell Line Bank), and cultured according to the vendor's recommendation. The human prostate cancer cell line stably expressing the STAT3 promoter (LNcaP stable cell line [plasmid STAT3-TA-luc])—which was prepared to evaluate the inhibitory effect of the compounds of the Examples against dimerization of STAT3—was cultured in RPMI1640 (Cat no. 11875, Gibco), 10% fetal bovine serum (Cat no. SH30071.03, Hyclone) and 150 μg/mL G418 solution (Cat no. 04 727 894 001, Roche).
The reporter gene assay of LNcap stable cell line was carried out by the use of RPMI 1640 medium containing 3% DCC-FBS (without G-418). The cell line was dispensed into two (2) white 96-well plates at 30,000 cells/well/50 μL. The cell line was incubated for 24 hours under the condition of 37° C. and 5% CO2, and then the Example compounds of 50 mM DMSO stock were diluted to various concentrations and treated to two (2) white 96-well plates containing cells. Then, IL-6 was treated to a final concentration of 10 ng/mL. After the treatment of Example compounds and IL-6, the cells were cultured for 48 hours under the condition of 37° C. and 5% CO2. After 48 hours, the 96-well plates were observed under a microscope to record the presence or absence of drug precipitation and specificities, and the 96-well plates were kept at room temperature for 30 minutes. Then, in the case of the first 96-well plate, the culture medium on the plate was removed to measure the luciferase activity, and treated with passive lysis buffer at 20 µL/well and shaken for 30 minutes. The luciferase activity was measured on microLUMA LB96P (BERTHOLD) or Centro XS LB 960 (BERTHOLD) instrument using Luciferase assay system (Cat No. E1501, Promega Corporation). In the case of the second 96-well plate, 20 μL of Glo-mix solution was added to measure cytotoxicity by the compounds of the Examples, and the plate was well shaken for 10 minutes and analyzed on microLUMA LB96P (BERTHOLD) instrument using Glo-vial protocol. As a negative control, a 96 well-plate in which culture medium was added but cells were not plated was used. As a positive control, a 96 well-plate in which cells were plated and 0.1% DMSO and culture medium containing stimulation were added was used.
The results of evaluating the inhibitory effects of the compounds of the Examples against dimerization of STAT3 and STAT1 via STAT3 and STAT1 reporter gene assay are represented in Table 1.
(In general: In a reporter assay the amount or activity of a reporter protein is the signal.)

T1 sequence (P40763 whole entry): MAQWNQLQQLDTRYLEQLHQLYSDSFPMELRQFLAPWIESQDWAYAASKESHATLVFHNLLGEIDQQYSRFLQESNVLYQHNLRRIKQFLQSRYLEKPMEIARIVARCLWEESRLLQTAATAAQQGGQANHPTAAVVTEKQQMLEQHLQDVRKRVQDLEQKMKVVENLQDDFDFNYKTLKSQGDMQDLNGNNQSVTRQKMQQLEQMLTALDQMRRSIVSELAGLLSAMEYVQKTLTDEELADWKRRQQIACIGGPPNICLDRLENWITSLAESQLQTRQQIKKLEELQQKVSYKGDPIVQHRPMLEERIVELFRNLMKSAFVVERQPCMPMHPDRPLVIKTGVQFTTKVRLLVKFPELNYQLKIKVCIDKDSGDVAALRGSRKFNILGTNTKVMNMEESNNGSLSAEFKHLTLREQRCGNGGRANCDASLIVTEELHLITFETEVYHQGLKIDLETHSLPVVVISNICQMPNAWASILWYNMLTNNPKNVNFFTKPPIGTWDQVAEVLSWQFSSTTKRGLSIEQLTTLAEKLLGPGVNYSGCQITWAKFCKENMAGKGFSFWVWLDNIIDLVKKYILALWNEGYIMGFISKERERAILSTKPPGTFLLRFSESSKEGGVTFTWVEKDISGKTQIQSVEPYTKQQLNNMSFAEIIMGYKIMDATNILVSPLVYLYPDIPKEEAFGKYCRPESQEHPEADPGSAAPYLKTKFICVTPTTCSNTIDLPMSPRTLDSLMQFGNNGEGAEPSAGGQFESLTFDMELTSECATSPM

In the case of `O=[N+]([O-])c1ccc(CCNc2cc(Cl)nc3cccc(F)c23)cc1` [Example 29, 2-chloro-5-fluoro-N-(4-nitrophenethyl)quinolin-4-amine], the IC50 was 2.5 µM in experiment [1] and 0.64 µM at STAT3.

Regarding `O=[N+]([O-])c1ccc(CCNc2cc(Cl)nc3cc(F)ccc23)cc1` [Example 30, 2-chloro-7-fluoro-N-(4-nitrophenethyl)quinolin-4-amine], the IC50 in experiment [1] stood at 7 µM; at STAT3, 2.2 µM.

In the case of `O=[N+]([O-])c1ccc(CCNc2cc(Cl)nc3c(F)cccc23)cc1` [Example 31, 2-chloro-8-fluoro-N-(4-nitrophenethyl)quinolin-4-amine], the IC50 in experiment [1] came out at 0.21 µM; at STAT3, 0.12 µM.

Take `O=[N+]([O-])c1ccc(CCNc2cc(Cl)nc3ccc(Cl)cc23)cc1` [Example 32, 2,6-dichloro-N-(4-nitrophenethyl)quinolin-4-amine]: the IC50 was determined as 33.8 µM in experiment [1] and 3.3 µM at STAT3.

In the case of `O=[N+]([O-])c1ccc(CCNc2cc(Cl)nc3ccc(Oc4ccccc4)cc23)cc1` [Example 33, 2-chloro-N-(4-nitrophenethyl)-6-phenoxyquinolin-4-amine], the values for the IC50 (in experiment [1]; at STAT3) were above 50 µM and 6 µM, respectively.

In the case of `O=C(c1ccccc1)c1ccc2nc(Cl)cc(NCCc3ccc([N+](=O)[O-])cc3)c2c1` [Example 34, (2-chloro-4-((4-nitrophenethyl)amino)quinolin-6-yl)(phenyl)methanone], the IC50 in experiment [1] is 15.7 µM; at STAT3 it was 6.9 µM.

`O=[N+]([O-])c1ccc(CCNc2cc(Cl)nc3ccc(O)cc23)cc1` [Example 35, 2-chloro-4-((4-nitrophenethyl)amino)quinolin-6-ol]: the IC50 came to 7.3 µM in experiment [1] and 2.3 µM at STAT3.

In the case of `O=[N+]([O-])c1ccc(CCNc2ncnc3ccccc23)cc1` [Example 36, N-(4-nitrophenethyl)quinazolin-4-amine], the IC50 in experiment [1] is 0.093 µM; at STAT3, 0.023 µM.

Regarding `CCOC(=O)COc1ccc2nc(Cl)cc(NCCc3ccc([N+](=O)[O-])cc3)c2c1` [Example 37, ethyl 2-((2-chloro-4-((4-nitrophenethyl)amino)quinolin-6-yl)oxy)acetate], the concentration for half-maximal inhibition (IC50) in experiment [1] was 10.6 µM; at STAT3, 20.3 µM.

`CS(=O)(=O)Nc1ccc(CCNc2ncnc3ccccc23)cc1` [Example 38, N-(4-(2-(quinazolin-4-ylamino)ethyl)phenyl)methanesulfonamide]: the IC50 in experiment [1] was 0.18 µM; on STAT3, 0.17 µM.

Turning to `NC(=O)COc1ccc2nc(Cl)cc(NCCc3ccc([N+](=O)[O-])cc3)c2c1` [Example 39, 2-((2-chloro-4-((4-nitrophenethyl)amino)quinolin-6-yl)oxy)acetamide], the half-maximal inhibitory concentration (IC50) (in experiment [1]; on STAT3) was above 50 µM throughout.

On to `O=C(O)c1ccc2nc(Cl)cc(NCCc3ccc([N+](=O)[O-])cc3)c2c1` [Example 40, 2-chloro-4-((4-nitrophenethyl)amino)quinolin-6-carboxylic acid], for which the IC50 (in experiment [1]; on STAT3) was above 50 µM in each case.

Regarding `NC(=O)c1ccc2nc(Cl)cc(NCCc3ccc([N+](=O)[O-])cc3)c2c1` [Example 41, 2-chloro-4-((4-nitrophenethyl)amino)quinolin-6-carboxamide], the IC50 in experiment [1] was above 50 µM; on STAT3, 9.8 µM.

As for `O=C(c1ccc2nc(Cl)cc(NCCc3ccc([N+](=O)[O-])cc3)c2c1)N1CCOCC1` [Example 42, (2-chloro-4-((4-nitrophenethyl)amino)quinolin-6-yl)(morpholino)methanone], the IC50 (in experiment [1]; at STAT3) was above 50 µM each time.

Consider `O=C(O)COc1ccc2nc(Cl)cc(NCCc3ccc([N+](=O)[O-])cc3)c2c1` [Example 43, 2-((2-chloro-4-((4-nitrophenethyl)amino)quinolin-6-yl)oxy)acetic acid], for which the concentration for half-maximal inhibition (IC50) (in experiment [1]; on STAT3) was above 50 µM in each case.

For `NNC(=O)c1ccc2nc(Cl)cc(NCCc3ccc([N+](=O)[O-])cc3)c2c1` [Example 44, 2-chloro-4-((4-nitrophenethyl)amino)quinolin-6-carbohydrazide], the IC50 (in experiment [1]; on STAT3) was above 50 µM throughout.

Regarding `CS(=O)(=O)Nc1ccc(CCNc2cc(Cl)nc3c(F)cccc23)cc1` [Example 45, N-(4-(2-((2-chloro-8-fluoroquinolin-4-yl)amino)ethyl)phenyl)methanesulfonamide], the half-inhibitory concentration (IC50) (in experiment [1]; on STAT3) was 13.1 µM each time.

Turning to `CS(=O)(=O)Nc1ccc(CCNc2ccnc3c(F)cccc23)cc1` [Example 46, N-(4-(2-((8-fluoroquinolin-4-yl)amino)ethyl)phenyl)methanesulfonamide], the values for the IC50 (in experiment [1]; at STAT3) were 18.9 µM and 33.7 µM, respectively.

As for `O=[N+]([O-])c1ccc(CCNc2nc(Cl)nc3[nH]cnc23)cc1` [Example 47, 2-chloro-N-(4-nitrophenethyl)-9H-purin-6-amine], the IC50 (in experiment [1]; on STAT3) was above 50 µM throughout.

For the molecule `O=[N+]([O-])c1ccc(CCNc2nc(C(F)(F)F)nc3ccccc23)cc1` [Example 48, N-(4-nitrophenethyl)-2-(trifluoromethyl)quinazolin-4-amine], the IC50 in experiment [1] is 14.2 µM; at STAT3, 7.3 µM.

Turning to `O=[N+]([O-])c1ccc(CCNc2cc(C(F)(F)F)nc3ccccc23)cc1` [Example 49, N-(4-nitrophenethyl)-2-(trifluoromethyl)quinolin-4-amine], the IC50 was 14.1 µM in experiment [1] and 5.6 µM at STAT3.

For `O=[N+]([O-])c1ccc(CCNc2nc(F)nc3[nH]cnc23)cc1` [Example 50, 2-fluoro-N-(4-nitrophenethyl)-9H-purin-6-amine], the values for the IC50 (in experiment [1]; at STAT3) were 23.1 µM and 13.9 µM, respectively.

As to `CNc1cc(NCCc2ccc([N+](=O)[O-])cc2)c2ccccc2n1` [Example 51, N^2-methyl-N^4-(4-nitrophenethyl)quinolin-2,4-diamine 2,2,2-trifluoroacetate], the IC50 in experiment [1] was 27.7 µM; on STAT3 it was 24.1 µM.

Consider `CS(=O)(=O)Nc1ccc(CCNc2cc(C(F)(F)F)nc3ccccc23)cc1` [Example 52, N-(4-(2-((2-(trifluoromethyl)quinolin-4-yl)amino)ethyl)phenyl)methanesulfonamide], for which the IC50 in experiment [1] was determined as 6.6 µM; on STAT3 it was 3.1 µM.

For the molecule `CS(=O)(=O)Nc1ccc(CCNc2nc(C(F)(F)F)nc3ccccc23)cc1` [Example 53, N-(4-(2-((2-(trifluoromethyl)quinazolin-4-yl)amino)ethyl)phenyl)methanesulfonamide], the IC50 in experiment [1] came out at 15.7 µM; on STAT3, 3 µM.

As for `O=[N+]([O-])c1ccc(CCNc2ncnc3ccc(-c4ccc(Cl)cc4Cl)cc23)cc1` [Example 54, 6-(2,4-dichlorophenyl)-N-(4-nitrophenethyl)quinazolin-4-amine], the IC50 was found to be 14.1 µM in experiment [1] and 11 µM at STAT3.

Consider `O=[N+]([O-])c1ccc(CCNc2cc(Cl)nc3ccc(-c4ccc(Cl)cc4Cl)cc23)cc1` [Example 55, 2-chloro-6-(2,4-dichlorophenyl)-N-(4-nitrophenethyl)quinolin-4-amine], for which the IC50 (in experiment [1]; at STAT3) was above 50 µM in each case.

Turning to `CS(=O)(=O)Nc1ccc(CCNc2ncnc3ccc(-c4ccc(Cl)cc4Cl)cc23)cc1` [Example 56, N-(4-(2-((6-(2,4-dichlorophenyl)quinazolin-4-yl)amino)ethyl)phenyl)methanesulfonamide], the IC50 in experiment [1] worked out at 13.9 µM; at STAT3, 6.6 µM.

By IC50 is commonly meant the concentration that inhibits the measured activity by half.
